# Where a name gives a salt, the structure may show the parent alone.
# Target: T1, Recombinant human TLR7 (Homo sapiens, UniProt Q9NYK1)
# T1 construct: expressed in transfected cells; host or cells: HEK293 cell line stably expressing the pNiFty2-SEAP reporter plasmid; TLR7 in vector pUNO, blasticidin selection
# T1 sequence (Q9NYK1 27-1049): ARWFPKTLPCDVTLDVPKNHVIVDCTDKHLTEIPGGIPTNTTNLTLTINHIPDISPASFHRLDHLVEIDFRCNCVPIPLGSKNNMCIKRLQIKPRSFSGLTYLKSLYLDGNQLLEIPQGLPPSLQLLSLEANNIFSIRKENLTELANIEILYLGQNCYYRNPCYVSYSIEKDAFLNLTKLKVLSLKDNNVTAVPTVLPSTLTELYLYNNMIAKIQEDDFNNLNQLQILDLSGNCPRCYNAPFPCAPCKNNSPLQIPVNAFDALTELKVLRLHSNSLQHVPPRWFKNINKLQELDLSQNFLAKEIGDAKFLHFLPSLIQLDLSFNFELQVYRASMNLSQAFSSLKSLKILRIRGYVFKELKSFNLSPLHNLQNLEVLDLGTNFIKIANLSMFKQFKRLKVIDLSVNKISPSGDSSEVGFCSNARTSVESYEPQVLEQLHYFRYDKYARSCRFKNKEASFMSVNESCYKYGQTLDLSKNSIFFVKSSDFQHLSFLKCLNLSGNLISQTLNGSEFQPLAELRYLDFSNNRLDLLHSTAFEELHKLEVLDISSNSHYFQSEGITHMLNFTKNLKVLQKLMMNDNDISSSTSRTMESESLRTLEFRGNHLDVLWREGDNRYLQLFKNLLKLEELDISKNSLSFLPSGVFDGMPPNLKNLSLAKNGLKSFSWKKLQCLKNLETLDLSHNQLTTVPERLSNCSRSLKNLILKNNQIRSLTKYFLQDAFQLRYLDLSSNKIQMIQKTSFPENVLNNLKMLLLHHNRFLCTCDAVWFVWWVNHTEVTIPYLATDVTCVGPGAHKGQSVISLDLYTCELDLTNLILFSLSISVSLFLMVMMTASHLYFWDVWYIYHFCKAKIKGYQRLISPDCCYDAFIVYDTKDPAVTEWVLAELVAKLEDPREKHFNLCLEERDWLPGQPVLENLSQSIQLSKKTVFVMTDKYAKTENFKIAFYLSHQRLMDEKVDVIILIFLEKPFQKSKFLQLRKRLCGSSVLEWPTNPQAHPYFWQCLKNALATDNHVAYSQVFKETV
# Test: Human TLR7 assay (HEK293 SEAP reporter)
# Type: cell-based
# Conditions: degree of TLR7 activation; SEAP induction in HEK293 cells stably expressing recombinant human TLR7 and pNiFty2-SEAP reporter, overnight incubation at 37° C., 0.1% (v/v) DMSO
# Method: The ability of compounds to activate TLR7 in vitro was assessed using the human TLR7 assay described below.
# Recombinant human TLR7 was stably expressed in a HEK293 cell line already stably expressing the pNiFty2-SEAP reporter plasmid; integration of the reporter gene was maintained by selection with the antibiotic zeocin. The most common variant sequence of human TLR7 (represented by the EMBL sequence AF240467) was cloned into the mammalian cell expression vector pUNO and transfected into this reporter cell-line. Transfectants with stable expression were selected using the antibiotic blasticidin. In this reporter cell-line, expression of secreted alkaline phosphatase (SEAP) is controlled by an NFkB/ELAM-1 composite promoter comprising five NFkB sites combined with the proximal ELAM-1 promoter. TLR signaling leads to the translocation of NFkB and activation of the promoter results in expression of the SEAP gene. TLR7-specific activation was assessed by determining the level of SEAP produced following overnight incubation of the cells at 37° C. with the standard compound in the presence of 0.1% (v/v) dimethylsulfoxide (DMSO). Concentration dependent induction of SEAP production by compounds was expressed as the concentration of compound which produced half of the maximal level of SEAP induction for that compound (EC50).
pEC50,EC50,Compound
,2000 nM,"CCCCCNc1nc(N)nc(C)c1Cc1ccc(C(=O)OC)cc1F [Example 18, Methyl 4-((2-amino-4-methyl-6-(pentylamino)pyrimidin-5-yl)methyl)-3-fluorobenzoate]"
,63.1 nM,"CCCCCNc1nc(N)nc(C)c1Cc1ccccc1OC [Example 19, 5-(2-Methoxybenzyl)-6-methyl-N4-pentylpyrimidine-2,4-diamine]"
,126 nM,"CCCCCNc1nc(N)nc(C)c1Cc1ccccc1O [Example 20, 2-((2-Amino-4-methyl-6-(pentylamino)pyrimidin-5-yl)methyl)phenol]"
,316 nM,"CCCCCNc1nc(N)nc(C)c1Cc1ccccc1OCC [Example 21, 5-(2-Ethoxybenzyl)-6-methyl-N^4-pentylpyrimidine-2,4-diamine]"
,1260 nM,CCCCCNc1nc(N)nc(C)c1Cc1ccccc1OCCCN(C)C [Example 22]
,2510 nM,"CCCCCNc1nc(N)nc(C)c1Cc1cccc(OC)c1 [Example 23, 5-(3-Methoxybenzyl)-6-methyl-N4-pentylpyrimidine-2,4-diamine]"
,5010 nM,"CCCCCNc1nc(N)nc(C)c1Cc1cccc(O)c1 [Example 24, 3-((2-Amino-4-methyl-6-(pentylamino)pyrimidin-5-yl)methyl)phenol]"
,794 nM,CCCCCNc1nc(N)nc(C)c1Cc1cccc(OCCCN(C)C)c1 [Example 25]
,631 nM,"CCCCCNc1nc(N)nc(C)c1Cc1cccc(OCCN2CCCCC2)c1 [Example 26, 6-Methyl-N^4-pentyl-5-(3-(2-(piperidin-1-yl)ethoxy)benzyl)pyrimidine-2,4-diamine]"
,398 nM,"CCCCCNc1nc(N)nc(C)c1Cc1cccc(OCCN(C)C)c1 [Example 27, 5-(3-(2-(Dimethylamino)ethoxy)benzyl)-6-methyl-N^4-pentylpyrimidine-2,4-diamine]"
,1260 nM,"CCCCCNc1nc(N)nc(C)c1Cc1cccc(OCCN2CCCC2)c1 [Example 28, 6-Methyl-N^4-pentyl-5-(3-(2-(pyrrolidin-1-yl)ethoxy)benzyl)pyrimidine-2,4-diamine]"
,316 nM,"CCCCCNc1nc(N)nc(C)c1Cc1cccc(CN(C)C)c1 [Example 29, 5-(3-((Dimethylamino)methyl)benzyl)-6-methyl-N^4-pentylpyrimidine-2,4-diamine]"
,100 nM,"CCCCCNc1nc(N)nc(C)c1Cc1ccc(C#CCN(C)C)cc1 [Example 30, 5-(4-(3-(Dimethylamino)prop-1-ynyl)benzyl)-6-methyl-N4-pentyl-pyrimidine-2,4-diamine]"
,100 nM,"CCCCCNc1nc(N)nc(C)c1Cc1ccc(CCCN(C)C)cc1 [Example 31, 5-(4-(3-(Dimethylamino)propyl)benzyl)-6-methyl-N^4-pentylpyrimidine-2,4-diamine]"
,251 nM,"CCCCCNc1nc(N)nc(C)c1Cc1cccc(CCCN(C)C)c1 [Example 32, 5-(3-(3-(Dimethylamino)propyl)benzyl)-6-methyl-N^4-pentylpyrimidine-2,4-diamine]"
,251 nM,"CCCCCNc1nc(N)nc(C)c1Cc1ccc(OCCCN(C)C)cc1C [Example 33, 5-(4-(3-(Dimethylamino)propoxy)-2-methylbenzyl)-6-methyl-N^4-pentylpyrimidine-2,4-diamine]"
,2000 nM,"COC(=O)Cc1cccc([C@@H](CCO)Nc2nc(N)nc(C)c2Cc2ccc(OCCCN(C)C)cc2)c1 [Example 34, (R)-Methyl 2-(3-(1-(2-amino-5-(4-(3-(dimethylamino)propoxy)benzyl)-6-methylpyrimidin-4-ylamino)-3-hydroxypropyl)phenyl)acetate]"

# More lines, now with the values behind:
Compound,pEC50,EC50
"5-(4-(2-(Dimethylamino)ethoxy)benzyl)-6-methyl-N-pentylpyrimidine-2,4-diamine [Example 3]",7.2,
"CCCCCNc1nc(N)nc(C)c1Cc1ccc(OC)cc1 [Example 1, 5-(4-Methoxybenzyl)-6-methyl-N^4-pentylpyrimidine-2,4-diamine]",,2000 nM
"CCCCCNc1nc(N)nc(C)c1Cc1ccc(O)cc1 [Example 2, 4-(2-Amino-4-methyl-6-pentylamino-pyrimidin-5-ylmethyl)-phenol]",,1260 nM
CCCCCNc1nc(N)nc(C)c1Cc1ccc(OCCCN(C)C)cc1 [Example 4],,63.1 nM
"CCCCCNc1nc(N)nc(C)c1Cc1ccc(OCCN2CCCCC2)cc1 [Example 5, 6-Methyl-N^4-pentyl-5-(4-(2-(piperidin-1-yl)ethoxy)benzyl)pyrimidine-2,4-diamine]",,126 nM
"CCCCCNc1nc(N)nc(C)c1Cc1ccc(OCCN2CCCC2)cc1 [Example 6, 6-Methyl-N^4-pentyl-5-(4-(2-(pyrrolidin-1-yl)ethoxy)benzyl)pyrimidine-2,4-diamine]",,100 nM
"CCCCCNc1nc(N)nc(C)c1Cc1ccc(OCCN(C)Cc2ccccc2)cc1 [Example 7, 5-(4-(2-(Benzyl(methyl)amino)ethoxy)benzyl)-6-methyl-N^4-pentyl-pyrimidine-2,4-diamine]",,631 nM
"CCCCCNc1nc(N)nc(C)c1Cc1ccc(OCCCO)cc1 [Example 8, 3-(4-((2-Amino-4-methyl-6-(pentylamino)pyrimidin-5-yl)methyl)-phenoxy)propan-1-ol]",,501 nM
"CCCCCNc1nc(N)nc(C)c1Cc1ccc(OCCCN2CCCC2)cc1 [Example 9, 6-Methyl-N^4-pentyl-5-(4-(3-(pyrrolidin-1-yl)propoxy)benzyl)pyrimidine-2,4-diamine]",,63.1 nM
"CCCCCNc1nc(N)nc(C)c1Cc1ccc(OCCCN2CCN(C)CC2)cc1 [Example 10, 6-Methyl-5-(4-(3-(4-methylpiperazin-1-yl)propoxy)benzyl)-V-pentylpyrimidine-2,4-diamine]",,79.4 nM
"CCCCCNc1nc(N)nc(C)c1Cc1ccc(OCCCN(C)C)cc1OC [Example 11, 5-(4-(3-(Dimethylamino)propoxy)-2-methoxybenzyl)-6-methyl-N^4-pentylpyrimidine-2,4-diamine]",,2.51 nM
"CCCCCNc1nc(N)nc(C)c1Cc1ccc(C(=O)OC)cc1OC [Example 12, Methyl 4-((2-amino-4-methyl-6-(pentylamino)pyrimidin-5-yl)methyl)-3-methoxybenzoate]",,63.1 nM
"CCC[C@@H](CO)Nc1nc(N)nc(C)c1Cc1ccc(C(=O)OC)cc1OC [Example 13, (S)-Methyl 4-((2-amino-4-(1-hydroxypentan-2-ylamino)-6-methyl-pyrimidin-5-yl)methyl)-3-methoxybenzoate]",,100 nM
"CCCC[C@@H](CCO)Nc1nc(N)nc(C)c1Cc1ccc(C(=O)OC)cc1OC [Example 14, (S)-Methyl 4-((2-amino-4-(1-hydroxyheptan-3-ylamino)-6-methyl-pyrimidin-5-yl)methyl)-3-methoxybenzoate]",,10 nM
"CCC[C@@H](CO)Nc1nc(N)nc(C)c1Cc1ccc(C(=O)OCCCCN(C)C)cc1OC [Example 15, (S)-4-(Dimethylamino)butyl 4-((2-amino-4-(1-hydroxypentan-2-yl-amino)-6-methylpyrimidin-5-yl)methyl)-3-methoxybenzoate benzenesulfonate salt]",,126 nM
"CCCCCNc1nc(N)nc(C)c1Cc1cc(C(=O)OC)ccc1OC [Example 16, Methyl 3-((2-amino-4-methyl-6-(pentylamino)pyrimidin-5-yl)methyl)-4-methoxybenzoate]",,50.1 nM
"CCCCCNc1nc(N)nc(C)c1Cc1cc(C(=O)OC)ccc1F [Example 17, Methyl 3-((2-amino-4-methyl-6-(pentylamino)pyrimidin-5-yl)methyl)-4-fluorobenzoate]",,3160 nM

# — patent publication US9533978B2 (AstraZeneca AB, priority 2009, dated 2017)
